According to patent US10722520B2, “Heterocyclic compounds and their use in preventing or treating bacterial infections” (MUTABILIS, priority 2016, dated 2020):
Structures can show the parent of a compound that is named as a salt. Where two headings read alike, the source gives them in different places.

Key:
CMY-37 = CMY-37 (Citrobacter freundii, UniProt P05193); conditions: read-out: IC50 β-lactamase CMY-37
CTX-M-15 = CTX-M-15 (Escherichia coli, UniProt Q9EXV5)
TEM-1 = TEM-1 (Escherichia coli, UniProt P62593)
AmpC (PAE) = AmpC (PAE) (Pseudomonas aeruginosa, UniProt P24735); experiment: biochemical
SHV-1 = SHV-1 (Klebsiella pneumoniae, UniProt P0AD64)
OXA-48 = OXA-48 (Klebsiella pneumoniae, UniProt Q6XEC0)
AmpC (P99) = AmpC (P99) (Enterobacter cloacae, UniProt P05364); experiment: biochemical
OXA-15 = OXA-15 (Pseudomonas aeruginosa, UniProt Q51574); experiment: biochemical
KPC-2 = KPC-2 (Klebsiella pneumoniae, UniProt Q9F663)
K. pneumoniae 6299 = experiment: MIC of compound alone, broth microdilution; type: cell-based; conditions: Klebsiella pneumoniae; strain 6299; compound alone; read-out: MIC compounds of the invention alone
Method: (§1) Log phase bacterial suspensions were adjusted to a final density of 5×10^5 cfu/mL in cation-adjusted Mueller-Hinton broth (Becton-Dickinson) and added to each well (98 μL). Microplates were incubated for 16-20 h at 35° C. in ambient air. The MIC of the compounds was defined as the lowest concentration of said compounds that prevented bacterial growth as read by visual inspection.

E. coli 190317 = experiment: MIC of compound alone, broth microdilution; type: cell-based; conditions: Escherichia coli; strain 190317; compound alone; read-out: MIC compounds of the invention alone
Method: as §1

P. aeruginosa CIP107051 = experiment: MIC of compound alone, broth microdilution; type: cell-based; conditions: Pseudomonas aeruginosa; strain CIP107051; compound alone; read-out: MIC compounds of the invention alone
Method: as §1

K. pneumoniae BAA-1898 = experiment: MIC of compound alone, broth microdilution; type: cell-based; conditions: Klebsiella pneumoniae, BAA1898; strain BAA-1898; compound alone; read-out: MIC compounds of the invention alone
Method: as §1

E. cloacae P99 = experiment: MIC of compound alone, broth microdilution; type: cell-based; conditions: Enterobacter cloacae; strain P99; compound alone; read-out: MIC compounds of the invention alone
Method: as §1

OXA-11 = OXA-11 (Pseudomonas aeruginosa, UniProt Q06778)
OXA-1 = OXA-1 (Escherichia coli, UniProt P13661)
[1] = class (C), nitrocefin 200 μM, 30-min pre-incubation, enzyme 0.2 nM

| Structure (SMILES) | IC50 (CMY-37) | IC50 (CTX-M-15) | IC50 (TEM-1) | IC50 (AmpC (PAE)) | IC50 (SHV-1) | IC50 (OXA-48) | IC50 (AmpC (P99)) | IC50 (OXA-15) | IC50 (KPC-2) | MIC (K. pneumoniae 6299) | MIC (E. coli 190317) | MIC (P. aeruginosa CIP107051) | MIC (K. pneumoniae BAA-1898) | MIC (E. cloacae P99) | IC50 (OXA-11) | IC50 (OXA-1) | IC50 (CMY-37; [1]) |
| --- | --- | --- | --- | --- | --- | --- | --- | --- | --- | --- | --- | --- | --- | --- | --- | --- | --- |
| O=C(CCO)Nc1ccn(C2=CC3CN(C2)C(=O)N3OS(=O)(=O)[O-])n1.[Na+] (stereo not drawn) [Example 51, sodium [3-[3-(3-hydroxypropanoylamino)pyrazol-1-yl]-7-oxo-1,6-diazabicyclo[3.2.1]oct-3-en-6-yl]sulfate] | 6.3 nM | 0.28 nM | 0.3 nM | 78 nM | 1.9 nM | 3.8 nM | 17 nM | 76 nM | 18 nM | 16 µg/mL | 8 µg/mL | > 32 µg/mL | 32 µg/mL | 16 µg/mL | 12 nM | 97 nM |  |
| NCCNC(=O)c1cnn(C2=CC3CN(C2)C(=O)N3OS(=O)(=O)O)c1 (stereo not drawn) [Example 38, [3-[4-(2-aminoethylcarbamoyl)pyrazol-1-yl]-7-oxo-1,6-diazabicyclo[3.2.1]oct-3-en-6-yl]hydrogen sulfate] |  | 0.7 nM | 0.43 nM | 210 nM | 2.5 nM | 3.2 nM | 34 nM | 17 nM | 7.5 nM | > 32 µg/mL | 4 µg/mL | 32 µg/mL | > 32 µg/mL | 16 µg/mL | 50 nM | 180 nM | 38 nM |
| O=C(NOCCO)c1ccn(C2=CC3CN(C2)C(=O)N3OS(=O)(=O)[O-])n1.[Na+] (stereo not drawn) [Example 47, sodium [3-[3-(2-hydroxyethoxycarbamoyl)pyrazol-1-yl]-7-oxo-1,6-diazabicyclo[3.2.1]oct-3-en-6-yl]sulfate] | 32 nM | 1.1 nM | 1.5 nM | 480 nM | 9.1 nM | 6.7 nM | 32 nM | 160 nM | 12 nM | 32 µg/mL | 8 µg/mL | > 32 µg/mL | 32 µg/mL | 32 µg/mL | 100 nM | 200 nM |  |
| COc1cnn(C2=CC3CN(C2)C(=O)N3OS(=O)(=O)[O-])c1.[Na+] (stereo not drawn) [Example 9, sodium [7-oxo-3-(4-methoxypyrazol-1-yl)-1,6-diazabicyclo[3.2.1]oct-3-en-6-yl]sulfate] | 9.3 nM | 0.5 nM | 0.41 nM | 29 nM | 1.9 nM | 7 nM | 15 nM | 55 nM | 22 nM | > 32 µg/mL | > 32 µg/mL | > 32 µg/mL | > 32 µg/mL | > 32 µg/mL | 310 nM | 410 nM |  |
| NCCc1ccn(C2=CC3CN(C2)C(=O)N3OS(=O)(=O)O)n1 (stereo not drawn) [Example 10, [3-[3-(2-aminoethyl)pyrazol-1-yl]-7-oxo-1,6-diazabicyclo[3.2.1]oct-3-en-6-yl]hydrogen sulfate] |  | 1.1 nM | 0.3 nM | 160 nM | 3.2 nM | 14 nM | 22 nM | 180 nM | 50 nM | > 32 µg/mL | 1 µg/mL | 32 µg/mL | 16 µg/mL | 8 µg/mL | 67 nM | 270 nM | 18 nM |
| O=C1N2CC(n3ncnn3)=CC(C2)N1OS(=O)(=O)[O-].[Na+] (stereo not drawn) [Example 44, sodium [7-oxo-3-(tetrazol-2-yl)-1,6-diazabicyclo[3.2.1]oct-3-en-6-yl]sulfate] | 26 nM | 0.86 nM | 0.48 nM | 150 nM | 3.3 nM | 0.29 nM | 13 nM | 32 nM | 7.3 nM | 4 µg/mL | 1 µg/mL | > 32 µg/mL | 4 µg/mL | 4 µg/mL | 20 nM | 36 nM |  |
| O=C(Nc1ncco1)c1ccn(C2=CC3CN(C2)C(=O)N3OS(=O)(=O)[O-])n1.[Na+] (stereo not drawn) [Example 37, sodium [7-oxo-3-[3-(oxazol-2-ylcarbamoyl)pyrazol-1-yl]-1,6-diazabicyclo[3.2.1]oct-3-en-6-yl]sulfate] | 15 nM | 0.46 nM | 0.5 nM | 200 nM | 3.2 nM | 2.5 nM | 9.7 nM | 32 nM | 2.9 nM | > 32 µg/mL | 8 µg/mL | > 32 µg/mL | > 32 µg/mL | > 32 µg/mL | 21 nM | 73 nM |  |
| NC(=O)CONC(=O)c1ccn(C2=CC3CN(C2)C(=O)N3OS(=O)(=O)[O-])n1.[Na+] (stereo not drawn) [Example 52, sodium [3-[3-[(2-amino-2-oxo-ethoxy)carbamoyl]pyrazol-1-yl]-7-oxo-1,6-diazabicyclo[3.2.1]oct-3-en-6-yl]sulfate] | 8.8 nM | 0.67 nM | 1.9 nM | 110 nM | 9.1 nM | 7.5 nM | 16 nM | 260 nM | 11 nM | 16 µg/mL | 8 µg/mL | > 32 µg/mL | 32 µg/mL | 16 µg/mL | 130 nM | 310 nM |  |
| NC(=O)c1ccn(C2=CC3CN(C2)C(=O)N3OS(=O)(=O)[O-])n1.[Na+] (stereo not drawn) [Example 19, sodium [3-(3-carbamoylpyrazol-1-yl)-7-oxo-1,6-diazabicyclo[3.2.1]oct-3-en-6-yl]sulfate] | 41 nM | 0.9 nM | 0.38 nM | 170 nM | 1.8 nM | 5.2 nM | 19 nM | 61 nM | 6.2 nM | 16 µg/mL | 4 µg/mL | > 32 µg/mL | 16 µg/mL | 8 µg/mL | 27 nM | 110 nM |  |
| O=C1N2CC(n3nccc3CCO)=CC(C2)N1OS(=O)(=O)[O-].[Na+] (stereo not drawn) [Example 68, sodium [3-[5-(2-hydroxyethyl)pyrazol-1-yl]-7-oxo-1,6-diazabicyclo[3.2.1]oct-3-en-6-yl]sulfate] | 130 nM | 7.1 nM | 0.73 nM | 430 nM | 2.8 nM | 49 nM | 170 nM | 4100 nM | 300 nM | > 32 µg/mL | > 32 µg/mL | > 32 µg/mL | > 32 µg/mL | > 32 µg/mL | 3900 nM | 1200 nM |  |
| O=C(CO)Nc1ccn(C2=CC3CN(C2)C(=O)N3OS(=O)(=O)[O-])n1.[Na+] (stereo not drawn) [Example 50, sodium [3-[3-[(2-hydroxyacetyl)amino]pyrazol-1-yl]-7-oxo-1,6-diazabicyclo[3.2.1]oct-3-en-6-yl]sulfate] | 5.9 nM | 0.59 nM | 1.2 nM | 67 nM | 5.6 nM | 5.7 nM | 12 nM | 60 nM | 12 nM | 16 µg/mL | 8 µg/mL | > 32 µg/mL | 32 µg/mL | 16 µg/mL | 11 nM | 79 nM |  |
| O=C1N2CC(n3cc(CNCCO)nn3)=CC(C2)N1OS(=O)(=O)O (stereo not drawn) [Example 67, [3-(4-(2-(methylamino)ethanol)triazol-1-yl)-7-oxo-1,6-diazabicyclo[3.2.1]oct-3-en-6-yl]hydrogen sulfate] |  | 1.3 nM | 1.2 nM | 720 nM | 8.4 nM | 1.6 nM | 38 nM | 18 nM | 20 nM | > 32 µg/mL | 2 µg/mL | > 32 µg/mL | > 32 µg/mL | 4 µg/mL | 250 nM | 270 nM | 100 nM |
